In patent US11613522B2, “Herbicidally active 3-phenylisoxazoline-5-carboxamides of tetrahydro- and dihydrofurancarboxamides” (BAYER AKTIENGESELLSCHAFT, priority 2017, dated 2023):

Key:
Format in all cases: in vivo
Alopecurus myosuroides [1] = test: Pre-emergence herbicidal activity against ALOMY; conditions: Alopecurus myosuroides, 504 h, dosage 80 g/ha, scored visually after about 3 weeks vs untreated controls
How it was run: (§1)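 Seeds sown in pots and covered with soil; compounds formulated as WP or EC applied to the soil surface as aqueous suspension or emulsion with 0.5% additive at 600 l/ha water. Pots held in greenhouse; activity scored visually about 3 weeks later as % versus untreated controls (100% = dead).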

Avena fatua [2] = test: Pre-emergence herbicidal activity against AVEFA; conditions: Avena fatua, 504 h, dosage 80 g/ha, scored visually after about 3 weeks vs untreated controls, read-out: Pre-emergence herbicidal activity in % against AVEVA (AVEFA)
How it was run: as §1

Echinochloa crus-galli [3] = test: Pre-emergence herbicidal activity against ECHCG; conditions: Echinochloa crus-galli, 504 h, dosage 80 g/ha, scored visually after about 3 weeks vs untreated controls
How it was run: as §1

Lolium rigidum [4] = test: Pre-emergence herbicidal activity against LOLRI; conditions: Lolium rigidum, 504 h, dosage 80 g/ha, scored visually after about 3 weeks vs untreated controls
How it was run: as §1

Setaria viridis [5] = test: Pre-emergence herbicidal activity against SETVI; conditions: Setaria viridis, 504 h, dosage 80 g/ha, scored visually after about 3 weeks vs untreated controls
How it was run: as §1

Abutilon theophrasti [6] = test: Pre-emergence herbicidal activity against ABUTH; conditions: dosage 80 g/ha, scored visually after about 3 weeks vs untreated controls
Description: (§2) 1. Pre-emergence herbicidal action against harmful plants and crop plant compatibility Seeds of monocotyledonous and dicotyledonous weed plants and crop plants are placed in plastic or wood fiber pots and covered with soil. The compounds of the invention, formulated in the form of wettable powders (WP) or as emulsion concentrates (EC), are then applied onto the surface of the covering soil as aqueous suspension or emulsion with addition of 0.5% additive at a water application rate of 600 l/ha (converted). After the treatment, the pots are placed in a greenhouse and kept under good growth conditions for the trial plants. After about 3 weeks, the effect of the preparations is scored visually in comparison with untreated controls as percentages. For example, 100% activity=the plants have died, 0% activity=like control plants. [table]

Amaranthus retroflexus [7] = test: Pre-emergence herbicidal activity against AMARE; conditions: Amaranthus retroflexus, 504 h, dosage 80 g/ha, scored visually after about 3 weeks vs untreated controls
How it was run: as §1

Pharbitis purpurea [8] = test: Pre-emergence herbicidal activity against PHBPU; conditions: dosage 80 g/ha, scored visually after about 3 weeks vs untreated controls
Description: as §2

Polygonum convolvulus [9] = test: Pre-emergence herbicidal activity against POLCO; conditions: Fallopia convolvulus, 504 h, dosage 80 g/ha, scored visually after about 3 weeks vs untreated controls
How it was run: as §1

Stellaria media [10] = test: Pre-emergence herbicidal activity against STEME; conditions: Stellaria media, 504 h, dosage 80 g/ha, scored visually after about 3 weeks vs untreated controls
How it was run: as §1

Viola tricolor [11] = test: Pre-emergence herbicidal activity against VIOTR; conditions: Viola tricolor, 504 h, dosage 80 g/ha, scored visually after about 3 weeks vs untreated controls
How it was run: as §1

Veronica persica [12] = test: Pre-emergence herbicidal activity against VERPE; conditions: Veronica persica, 504 h, dosage 80 g/ha
How it was run: as §1

Hordeum murinum [13] = test: Pre-emergence herbicidal activity against HORMU; conditions: Hordeum murinum, 504 h, dosage 80 g/ha
How it was run: as §1

Alopecurus myosuroides [14] = test: Post-emergence herbicidal activity against ALOMY; conditions: Alopecurus myosuroides, 504 h, dosage 320 g/ha, rated visually after about 3 weeks
How it was run: (§3)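 Post-emergence greenhouse spray at one-leaf stage, 600 l/ha with 0.5% additive; percent activity rated by eye after about 3 weeks relative to untreated plants.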

Avena fatua [15] = test: Post-emergence herbicidal activity against AVEFA; conditions: Avena fatua, 504 h, dosage 320 g/ha, rated visually after about 3 weeks
How it was run: as §3

Echinochloa crus-galli [16] = test: Post-emergence herbicidal activity against ECHCG; conditions: Echinochloa crus-galli, 504 h, dosage 320 g/ha, rated visually after about 3 weeks
How it was run: as §3

Lolium rigidum [17] = test: Post-emergence herbicidal activity against LOLRI; conditions: Lolium rigidum, 504 h, dosage 320 g/ha, rated visually after about 3 weeks
How it was run: as §3

Setaria viridis [18] = test: Post-emergence herbicidal activity against SETVI; conditions: Setaria viridis, 504 h, dosage 320 g/ha, rated visually after about 3 weeks
How it was run: as §3

Abutilon theophrasti [19] = test: Post-emergence herbicidal activity against ABUTH; conditions: Abutilon theophrasti, 504 h, dosage 320 g/ha, rated visually after about 3 weeks
How it was run: as §3

Pharbitis purpurea [20] = test: Post-emergence herbicidal activity against PHBPU; conditions: Ipomoea purpurea, 504 h, dosage 320 g/ha, rated visually after about 3 weeks
How it was run: as §3

Polygonum convolvulus [21] = test: Post-emergence herbicidal activity against POLCO; conditions: Fallopia convolvulus, 504 h, dosage 320 g/ha, rated visually after about 3 weeks
How it was run: as §3

Stellaria media [22] = test: Post-emergence herbicidal activity against STEME; conditions: Stellaria media, 504 h, dosage 320 g/ha, rated visually after about 3 weeks
How it was run: as §3

Viola tricolor [23] = test: Post-emergence herbicidal activity against VIOTR; conditions: Viola tricolor, 504 h, dosage 320 g/ha, rated visually after about 3 weeks
How it was run: as §3

Veronica persica [24] = test: Post-emergence herbicidal activity against VERPE; conditions: Veronica persica, 504 h, dosage 320 g/ha, rated visually after about 3 weeks
How it was run: as §3

[25] = Pre-emergence herbicidal action against harmful plants (summary of the tables); conditions: 504 h, application rate of 0.08 kg of active substance or less per hectare, read-out: herbicidal action, pre-emergence treatment (very good activity)
How it was run: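 Seeds of weeds and crops were covered with soil, then WP or EC formulations were sprayed onto the soil surface pre-emergence at 600 l/ha water with 0.5% additive. Plants were grown in a greenhouse for about 3 weeks, and damage was scored visually as a percentage versus untreated controls (100% = plants dead).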

Amaranthus retroflexus [26] = test: Post-emergence herbicidal activity against AMARE; conditions: Amaranthus retroflexus, 504 h, dosage 320 g/ha, rated visually after about 3 weeks
How it was run: as §3

Hordeum murinum [27] = test: Post-emergence herbicidal activity against HORMU; conditions: Hordeum murinum, 504 h, dosage 320 g/ha, rated visually after about 3 weeks
How it was run: as §3

Structure (SMILES)	pest or weed control at 80 g/ha (Alopecurus myosuroides [1]) [%]	pest or weed control at 80 g/ha (Avena fatua [2]) [%]	pest or weed control at 80 g/ha (Echinochloa crus-galli [3]) [%]	pest or weed control at 80 g/ha (Lolium rigidum [4]) [%]	pest or weed control at 80 g/ha (Setaria viridis [5]) [%]	pest or weed control at 80 g/ha (Amaranthus retroflexus [7]) [%]	Pre-emergence herbicidal activity in % against PHBPU (Pharbitis purpurea [8]) [%]	pest or weed control at 80 g/ha (Polygonum convolvulus [9]) [%]	pest or weed control at 80 g/ha (Stellaria media [10]) [%]	pest or weed control at 80 g/ha (Viola tricolor [11]) [%]	pest or weed control at 80 g/ha (Veronica persica [12]) [%]	pest or weed control at 80 g/ha (Hordeum murinum [13]) [%]	pest or weed control at 320 g/ha (Alopecurus myosuroides [14]) [%]	pest or weed control at 320 g/ha (Avena fatua [15]) [%]	pest or weed control at 320 g/ha (Echinochloa crus-galli [16]) [%]	pest or weed control at 320 g/ha (Lolium rigidum [17]) [%]	pest or weed control at 320 g/ha (Setaria viridis [18]) [%]	pest or weed control at 320 g/ha (Pharbitis purpurea [20]) [%]	pest or weed control at 320 g/ha (Polygonum convolvulus [21]) [%]	pest or weed control at 320 g/ha (Stellaria media [22]) [%]	further results
C=C[C@]1(C(=O)N[C@@H]2CO[C@H](C(=O)NOC)C2)CC(c2cc(F)cc(F)c2)=NO1 (mixture of isomers) [Example I-11, (5S)-3-(3,5-difluorophenyl)-N-[cis-5-(methoxycarbamoyl)tetrahydrofuran-3-yl]-5-vinyl-4H-isoxazole-5-carboxamide]	100	100	100	100	100	100	90	100	100	100	90	90	90	90	90	90	90	80	80	90	Pre-emergence herbicidal activity in % against ABUTH (Abutilon theophrasti [6]): 100%; pest or weed control at 320 g/ha (Abutilon theophrasti [19]): 80%; pest or weed control at 320 g/ha (Viola tricolor [23]): 80%; pest or weed control at 320 g/ha (Veronica persica [24]): 80%; pest or weed control at 80 g/ha [25]: 80 to 100%
C=C[C@]1(C(=O)N[C@@H]2CO[C@H](C(=O)NOC(C)C)C2)CC(c2cc(F)cc(F)c2)=NO1 (mixture of isomers) [Example I-13, (5S)-3-(3,5-difluorophenyl)-N-[cis-5-(isopropoxycarbamoyl)tetrahydrofuran-3-yl]-5-vinyl-4H-isoxazole-5-carboxamide]	100	100	100	100	100	100	90	100	100	100	90	100	90	90	90	90	90	80	80	90	pest or weed control at 320 g/ha (Abutilon theophrasti [19]): 80%; pest or weed control at 320 g/ha (Amaranthus retroflexus [26]): 80%; pest or weed control at 320 g/ha (Viola tricolor [23]): 80%; pest or weed control at 320 g/ha (Veronica persica [24]): 80%; pest or weed control at 320 g/ha (Hordeum murinum [27]): 90%; pest or weed control at 80 g/ha [25]: 80 to 100%
C=C[C@]1(C(=O)N[C@@H]2CO[C@H](C(=O)N(C)C)C2)CC(c2cc(F)cc(F)c2)=NO1 (mixture of isomers) [Example I-17, (5S)-3-(3,5-difluorophenyl)-N-[cis-5-(dimethylcarbamoyl)tetrahydrofuran-3-yl]-5-vinyl-4H-isoxazole-5-carboxamide]	90	100	100	100	100	100	90	100	100	100	100	100	90	90	80	90	90	80	80	90	Pre-emergence herbicidal activity in % against ABUTH (Abutilon theophrasti [6]): 80%; pest or weed control at 320 g/ha (Amaranthus retroflexus [26]): 90%; pest or weed control at 320 g/ha (Viola tricolor [23]): 80%; pest or weed control at 320 g/ha (Veronica persica [24]): 80%; pest or weed control at 320 g/ha (Hordeum murinum [27]): 80%; pest or weed control at 80 g/ha [25]: 80 to 100%
